Test [1] deals with brain cells in the hippocampal region, mouse model of stroke. Kind of test: Neurological scoring of hippocampal brain cell damage (Nissl staining) in mouse model of stroke. Type of test: in vivo, ICR mice. The settings on record: for Neurological Score: Table 13, score 0-3 points of hippocampal damage. The protocol: Seven-week old ICR mice in about 30 g to 35 g (Orientbio Inc, Republic of Korea) were received water and feed without constraint and adapted for 5 days under an environment having about 23±1° C. of temperature, about 60±10% of humidity and 12-hour light/dark cycle (animal laboratory at College of Pharmacy, Kyung-Hee University), and then used for the experiment.
The laboratory animal in 1) was located in an operating room, adapted for 60 minutes, and anesthetized in a space providing anaesthetic gasses (nitrous oxide: 70%; oxygen: 30%; isoflurane: 2.0%). Pain reflex was examined to confirm the anesthesia. The laboratory animal was lain down straight on an operating table, and fixed its upper limb and head. Skin from the spot, where the upper limb and the center line meet, was incised as 1.5 cm to expose the both common carotid arteries by using tweezers while not damaging the tissues. Tissues and nerves attached to the exposed carotid arteries were separated and fixed with an aneurysm clip. The clip was removed after 15 minutes and reperfused, and the incised area was sutured with sutures. After the suture, the laboratory animal was immediately moved to a recovery room (32-33° C., O2 enrichment condition) and kept until it recovers from anesthesia. Observation on its weight and status was conducted once a day for 4 days after the operation.
Meanwhile, upon termination of the Y-maze test, a 4% paraformaldehyde fixation was conducted on the drug administration groups 1-3 and the control 2, and brain was excised. Paraformaldehyde-fixed brain sample was washed and section having 30 μm of thickness was prepared therefrom. The Nissl staining, which can stain a native region of brain cells in normal status, was performed. Brain cell damage in the hippocampal region of the drug administration groups 1-3, wherein the Swertia japonica extract prepared in Example 1 was administered, and the controls 1 and 2 was assessed through a neurological scoring. Pertaining to the evaluation standard, 0 point was scored when there was no damage on the hippocampal region; 1 point for 0-30% of damage; 2 points for 30-60% of damage; and 3 points for 60-100% of damage. The points were scored by 3 people who have no knowledge of the drug administration groups and the controls. Average point was used to calculate the degree of damage.
Upon termination of the Y-maze test, the drug administration groups 1-3 and the control 2 were sacrificed to prepare the brain section, and the Nissl staining was conducted to evaluate brain cell damage in the hippocampal region of the drug administration groups 1-3, wherein swertisin prepared in Example 3 was administered, and the controls 1 and 2 through the neurological scoring.

Test [2] deals with model of memory impairment induced by scopolamine. Kind of test: Y-maze test in scopolamine-treated mice. The test is classed as in vivo, ICR mice. The note with it: scopolamine 1 mg/Kg i.p.; for Alternation Behavior (%): Table 6, 8 minutes in Y-maze; for Total Entry: Table 7, total number of entry to each branch, 8 minutes. The protocol: An experiment was conducted to confirm effects of swertisin or isoorientin, and extracts of Swertia pseudochinensis or Swertia japonica containing the same prepared in Examples 1 to 3 in treating dementia by using a model of memory impairment induced by scopolamine. Detailed method follows.
Six-week old ICR mice in about 26 g to 28 g (Orientbio Inc, Republic of Korea) were received water and feed without constraint and adapted for 5 days under an environment having about 23±1° C. of temperature, about 60±10% of humidity and 12-hour light/dark cycle (animal laboratory at College of Pharmacy, Kyung-Hee University), and then used for the experiment.
A Y-maze was prepared for the experiment. The Y-maze has 3 branches and each branch has 42 cm of length, 3 cm of width and 12 cm of height. Angle between any two arms is 120 degrees and the arms were made of black polyvinyl resin.
The mice prepared in the above 1) were separated into 5 groups (10 mice per each group) comprised of drug administration groups 1 and 2, and controls 1 to 3.
The swertisin prepared in Example 3 (8 mg) was dissolved in 4 mL of 10% Tween 80 (Polyoxyethylene sorbitan monooleate: Sigma, U.S.A.), and administered to the drug administration groups 1 and 2 in an amounts of 5 mg/Kg and 10 mg/Kg respectively. Meanwhile, 5 mg/Kg of donepezil was administered to the control 1, and 0.15 mL of 10% Tween 80 was administered to the controls 2 and 3 respectively.
About 30 minutes later, 1 mg/Kg of scopolamine, which was dissolved in distilled water, was intraperitoneally administered to the drug administration groups 1 and 2, and controls 1 and 2 (Ebert, U. et al., Eur. J. Clin. Invest., 28, pp. 944-949, 1998), and 0.9% of saline solution was intraperitoneally administered to the control 3.
After 30 minutes, mice of the drug administration groups 1 and 2, and the controls 1-3 were carefully located on each branches of the Y-maze, which was divided as A, B and C respectively, and let the mice move freely for 8 minutes, and then recorded branches where mice have entered. The entrance was recorded when the entire body (i.e. including the tail) has completely entered. It was also recorded when the mice entered again into the branch that the mice have entered before.
One point was scored when the mouse sequentially entered into 3 different branches (actual alternation). Alternation behavior is defined as sequentially entering into every 3 branch, and it was converted into % via Equation 1 below (Sarter, M. et al., Psychopharmacology., 94, pp. 491-495, […]).

Turning to `COc1cc2oc(-c3ccc(O)cc3)cc(=O)c2c(O)c1[C@@H]1O[C@H](CO)[C@@H](O)[C@H](O)[C@H]1O` [swertisin], the figures for the “Neurological Score” value in test [1] (swertisin 50 mg/kg for 7 days), in test [1] (swertisin 100 mg/kg for 7 days) and in test [1] (swertisin 200 mg/kg for 7 days) were 1.8130 ± 0.3750, 1.2500 ± 0.2500 and 1.1670 ± 0.5204, respectively. Also, the “neurological score, in words” value in test [1] (swertisin 200 mg/kg (drug administration group 3) versus stroke-induced group) was “significant result to the stroke-induced group”. Besides, the figures for the “Alternation Behavior (%)” value in test [2] (swertisin 5 mg/kg) and in test [2] (swertisin 10 mg/kg) were 56.22 ± 12.29% and 59.36 ± 5.653%, respectively. The entries for the “Total Entry” value in test [2] (swertisin 5 mg/kg) and in test [2] (swertisin 10 mg/kg) were 27.10 ± 7.795 and 28.88 ± 4.155, respectively.

(Values after US10251902B2, “Pharmaceutical composition for treating or preventing neuropsychiatric disease, containing flavone-6-C-glucose derivatives as active ingredients” (priority 2013, dated 2019).)
